# System: 610 metabolites from 63 biochemical pathways
# Experiment: Targeted broad-spectrum plasma metabolomic analysis (LC-MS/MS), paired pre-infusion vs post-infusion (2-days and 6-weeks)
# Type: in vivo, human
# Settings: plasma, 2-days after infusion vs pre-infusion
# Description: Targeted, broad-spectrum, plasma metabolomic analysis of 610 metabolites from 63 biochemical pathways was performed by high performance liquid chromatography and tandem mass spectrometry (LC-MS/MS) on the samples collected from patients in Example 1. Venous blood was collected between the hours of 8 am and 5 pm, at least 3 hours after the last meal, into lithium-heparin vacutainer tubes (BD #367884). Plasma was separated by centrifugation at 900 g×10 minutes at room temperature within one hour of collection. The resulting fresh lithium-heparin plasma was transferred to labeled 1.2 ml or 2.0 ml externally threaded cryotubes with a minimum headspace air gap for storage at −80° C. for analysis. Samples were analyzed on an AB SCIEX QTRAP 5500 triple quadrupole mass spectrometer equipped with a Turbo V electrospray ionization (ESI) source, Shimadzu LC-20A UHPLC system, and a PAL CTC autosampler. Typically, 90 μl of plasma was thawed on ice and transferred to a 1.7 ml Eppendorf tube. Five (5.0) μl of a cocktail containing 25-35 commercial stable isotope internal standards, and 5.0 μl of 57 stable isotope internal standards that were custom-synthesized in E. coli NCM3722, Caenorhabditis elegans N2, and Komagataella phaffii (ATCC 76273; formerly known as Pichia pastoris) by metabolic labeling with 13C-glucose and 13C-bicarbonate, were added, mixed, and incubated for 10 min at 20° C. to permit small molecules and vitamins in the internal standards to associate with plasma binding proteins. Macromolecules (protein, DNA, RNA, glycans, etc.) were precipitated by extraction with 4 volumes (400 μl) of cold (−20° C.), acetonitrile:methanol (50:50) (LCMS grade, Cat #LC015-2.5 and GC230-4, Burdick & Jackson, Honeywell), vortexed vigorously, and incubated on crushed ice for 10 min, then removed by centrifugation at 16,000 g×10 min at 4° C. The supernatants containing the extracted metabolites and internal standards in the resulting 40:40:20 solvent mix of acetonitrile:methanol:water were transferred to labeled cryotubes and stored at −80° C. for LCMS/MS analysis.
# LC-MS/MS analysis was performed by scheduled multiple reaction monitoring (sMRM) under Analyst v1.6.2 software control in both negative and positive mode with rapid polarity switching (50 ms). Nitrogen was used for curtain gas (set to 30), collision gas (set to high), ion source gas 1 and 2 (set to 35). The source temperature was 500° C. Spray voltage was set to −4500 V in negative mode and 5500 V in positive mode. The values for Q1 and Q3 mass-to-charge ratios (m/z), declustering potential (DP), entrance potential (EP), collision energy (CE), and collision cell exit potential (CXP) were determined and optimized for each MRM for each metabolite. Ten microliters of extract was injected by PAL CTC autosampler via a 10 μl stainless steel loop into a 250 mm×2.0 mm, 4 μm polymer based NH2 HPLC column (Asahipak NH2P-40 2E, Showa Denko America, Inc., NY) held at 25° C. for chromatographic separation. The mobile phase was solvent A: 95% water with 20 mM (NH4)2CO3 (Sigma, Fluka Cat #74415-250G-F), 5% acetonitrile, and 38 mM NH4OH (Sigma, Fluka Cat #17837-100ML), final pH 9.75; solvent B: 100% acetonitrile. Separation was achieved using the following gradient: 0-3.5 min: 95% B, 3.6-8 min: 85% B, 8.1-13 min: 75% B, 13.5-35 min: 0% B, 36-46 min: 95% B, 46.1 min: end. The flow rate was 200 μl/min. Pump pressures ranged from 920-2600 psi over the course of the gradient. All the samples were kept at 4° C. during analysis. The chromatographic peaks were identified using MultiQuant (v3.0, Sciex), confirmed by manual inspection, and the peak areas integrated. […]
# [1] = SAM, SAH, Methionine, Cysteine, Glutathione Metabolism
# [2] = Taurine, Hypotaurine Metabolism
# [3] = Tryptophan, Kynurenine, Serotonin, Melatonin Metabolism
# [4] = Tyrosine and Phenylalanine Metabolism
# [5] = Vitamin D (Calciferol) Metabolism
smiles,measurement,setting,value
"Cc1ccc(C(=O)Nc2ccc(S(=O)(=O)O)c3cc(S(=O)(=O)O)cc(S(=O)(=O)O)c23)cc1NC(=O)c1cccc(NC(=O)Nc2cccc(C(=O)Nc3cc(C(=O)Nc4ccc(S(=O)(=O)O)c5cc(S(=O)(=O)O)cc(S(=O)(=O)O)c45)ccc3C)c2)c1 [Suramin, suramin]","Z Score, Azelaic acid","Nitric Oxide, Superoxide, Peroxide Metabolism",−2.024
same,"Linear Ratio, LysoPC(16:0)",Phospholipid Metabolism,0.777
same,"Linear Ratio, PA(16:0/16:1)",Phospholipid Metabolism,0.793
same,"Linear Ratio, PG(16:0/16:0)",Phospholipid Metabolism,0.549
same,"VIP Score, LysoPC(16:0)",Phospholipid Metabolism,2.067
same,"VIP Score, PA(16:0/16:1)",Phospholipid Metabolism,1.998
same,"VIP Score, PG(16:0/16:0)",Phospholipid Metabolism,1.664
same,"Z Abs, LysoPC(16:0)",Phospholipid Metabolism,0.908
same,"Z Abs, PA(16:0/16:1)",Phospholipid Metabolism,0.813
same,"Z Abs, PG(16:0/16:0)",Phospholipid Metabolism,0.667
same,"Z Score, LysoPC(16:0)",Phospholipid Metabolism,−0.908
same,"Z Score, PA(16:0/16:1)",Phospholipid Metabolism,−0.813
same,"Z Score, PG(16:0/16:0)",Phospholipid Metabolism,−0.667
same,"Linear Ratio, 1-Methyladenine",Purine Metabolism,1.631
same,"Linear Ratio, AICAR",Purine Metabolism,1.309
same,"Linear Ratio, Allantoin",Purine Metabolism,1.663
same,"Linear Ratio, Cyclic adenosine monophosphate",Purine Metabolism,0.855
same,"Linear Ratio, Deoxyguanosine diphosphate",Purine Metabolism,0.889
same,"Linear Ratio, Guanosine",Purine Metabolism,0.702
same,"Linear Ratio, Hypoxanthine",Purine Metabolism,0.745
same,"Linear Ratio, Purine",Purine Metabolism,1.203
same,"Linear Ratio, Xanthosine",Purine Metabolism,0.821
same,"VIP Score, 1-Methyladenine",Purine Metabolism,2.033
same,"VIP Score, AICAR",Purine Metabolism,1.787
same,"VIP Score, Allantoin",Purine Metabolism,2.195
same,"VIP Score, Cyclic adenosine monophosphate",Purine Metabolism,1.949
same,"VIP Score, Deoxyguanosine diphosphate",Purine Metabolism,2.264
same,"VIP Score, Guanosine",Purine Metabolism,1.519
same,"VIP Score, Hypoxanthine",Purine Metabolism,2.267
same,"VIP Score, Purine",Purine Metabolism,1.847
same,"VIP Score, Xanthosine",Purine Metabolism,1.764
same,"Z Abs, 1-Methyladenine",Purine Metabolism,1.337
same,"Z Abs, AICAR",Purine Metabolism,1.310
same,"Z Abs, Allantoin",Purine Metabolism,0.926
same,"Z Abs, Cyclic adenosine monophosphate",Purine Metabolism,0.681
same,"Z Abs, Deoxyguanosine diphosphate",Purine Metabolism,1.276
same,"Z Abs, Guanosine",Purine Metabolism,0.766
same,"Z Abs, Hypoxanthine",Purine Metabolism,1.000
same,"Z Abs, Purine",Purine Metabolism,1.137
same,"Z Abs, Xanthosine",Purine Metabolism,1.316
same,"Z Score, 1-Methyladenine",Purine Metabolism,1.337
same,"Z Score, AICAR",Purine Metabolism,1.310
same,"Z Score, Allantoin",Purine Metabolism,0.926
same,"Z Score, Cyclic adenosine monophosphate",Purine Metabolism,−0.681
same,"Z Score, Deoxyguanosine diphosphate",Purine Metabolism,−1.276
same,"Z Score, Guanosine",Purine Metabolism,−0.766
same,"Z Score, Hypoxanthine",Purine Metabolism,−1.000
same,"Z Score, Purine",Purine Metabolism,1.137
same,"Z Score, Xanthosine",Purine Metabolism,−1.316
same,"Linear Ratio, Cytosine",Pyrimidine Metabolism,1.689
same,"Linear Ratio, Orotic acid",Pyrimidine Metabolism,0.670
same,"VIP Score, Cytosine",Pyrimidine Metabolism,2.556
same,"VIP Score, Orotic acid",Pyrimidine Metabolism,1.787
same,"Z Abs, Cytosine",Pyrimidine Metabolism,2.055
same,"Z Abs, Orotic acid",Pyrimidine Metabolism,0.612
same,"Z Score, Cytosine",Pyrimidine Metabolism,2.055
same,"Z Score, Orotic acid",Pyrimidine Metabolism,−0.612
same,"Linear Ratio, Cysteamine",[1],1.107
same,"Linear Ratio, Cysteine-S-sulfate",[1],0.869
same,"Linear Ratio, Methionine sulfoxide",[1],1.331
same,"VIP Score, Cysteamine",[1],2.075
same,"VIP Score, Cysteine-S-sulfate",[1],1.682
same,"VIP Score, Methionine sulfoxide",[1],1.817
same,"Z Abs, Cysteamine",[1],1.398
same,"Z Abs, Cysteine-S-sulfate",[1],0.644
same,"Z Abs, Methionine sulfoxide",[1],1.738
same,"Z Score, Cysteamine",[1],1.398
same,"Z Score, Cysteine-S-sulfate",[1],−0.644
same,"Z Score, Methionine sulfoxide",[1],1.738
same,"Linear Ratio, SM(d18:1/20:0)",Sphingomyelin Metabolism,0.712
same,"Linear Ratio, SM(d18:1/20:1)",Sphingomyelin Metabolism,0.745
same,"VIP Score, SM(d18:1/20:0)",Sphingomyelin Metabolism,1.576
same,"VIP Score, SM(d18:1/20:1)",Sphingomyelin Metabolism,2.033
same,"Z Abs, SM(d18:1/20:0)",Sphingomyelin Metabolism,0.770
same,"Z Abs, SM(d18:1/20:1)",Sphingomyelin Metabolism,1.250
same,"Z Score, SM(d18:1/20:0)",Sphingomyelin Metabolism,−0.770
same,"Z Score, SM(d18:1/20:1)",Sphingomyelin Metabolism,−1.250
same,"Linear Ratio, Taurine",[2],0.786
same,"VIP Score, Taurine",[2],2.042
same,"Z Abs, Taurine",[2],0.942
same,"Z Score, Taurine",[2],−0.942
same,"Linear Ratio, L-Kynurenine",[3],1.099
same,"VIP Score, L-Kynurenine",[3],1.617
same,"Z Abs, L-Kynurenine",[3],0.625
same,"Z Score, L-Kynurenine",[3],0.625
same,"Linear Ratio, L-Phenylalanine",[4],1.164
same,"VIP Score, L-Phenylalanine",[4],1.839
same,"Z Abs, L-Phenylalanine",[4],0.957
same,"Z Score, L-Phenylalanine",[4],0.957
same,"Linear Ratio, 1,25-Dihydroxyvitamin D3",[5],0.273
same,"VIP Score, 1,25-Dihydroxyvitamin D3",[5],3.134
same,"Z Abs, 1,25-Dihydroxyvitamin D3",[5],1.447
same,"Z Score, 1,25-Dihydroxyvitamin D3",[5],−1.447

# From patent publication US20190358181A1, “METHODS FOR AUTISM SPECTRUM DISORDER PHARMACOTHERAPY” (priority 2017, published 2019)
